# PMC3260207, “Site-Directed Mutations and the Polymorphic Variant Ala160Thr in the Human Thromboxane Receptor Uncover a Structural Role for Transmembrane Helix 4” (PLoS ONE, 2012)
# Changes are numbered by the printed parent chain.
# Columns and labels:
# TP A160S mutant = molecular target: T1, TP A160S mutant (Homo sapiens, UniProt P21731, A160S); assay: Heterologous competition binding, unlabeled U46619 against 4 nM [3H] SQ 29,548; details: read-out: Ki of agonist U46619, 4 nM [3H] SQ 29,548, 2 hr room temperature, Cheng-Prusoff from IC50
# T1 construct: expressed in transfected cells; HEK293T (calcium assays)
# T1 sequence (P21731 1-343 A160S): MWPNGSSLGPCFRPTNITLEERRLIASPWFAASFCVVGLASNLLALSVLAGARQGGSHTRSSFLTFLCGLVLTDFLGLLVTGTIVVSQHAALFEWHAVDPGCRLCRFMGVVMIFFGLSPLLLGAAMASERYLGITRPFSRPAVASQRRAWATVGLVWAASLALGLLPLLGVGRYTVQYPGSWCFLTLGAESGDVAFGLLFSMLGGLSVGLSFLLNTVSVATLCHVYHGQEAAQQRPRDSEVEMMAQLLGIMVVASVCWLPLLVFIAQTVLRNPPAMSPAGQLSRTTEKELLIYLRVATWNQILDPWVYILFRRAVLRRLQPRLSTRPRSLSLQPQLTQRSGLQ
# Protocol: (§1) Amino acid substitutions were introduced into the synthetic TPα gene carried by the expression vector pMT4 as described previously, [29]. DNA sequences of all the mutated genes were verified by automated DNA sequencing. To minimize variations in transfection efficiency, the total amount transfected DNA was kept constant in all cases at 1 µg of DNA per 7×10^5 cells. The wild type TP or mutant genes were expressed in COS-1 cells using a DEAE-dextran based transient transfection method, [29], and in HEK293T cells using lipofectamine 2000 (Invitrogen). Except unless specified, the membranes prepared from COS-1 cells were used for radioligand binding assays and immunoblots. For intracellular calcium determination assays and immunofluorescence imaging, HEK293T cells were used. For transient transfections of HEK293T cells using the plasmid pMT4, lipofectamine 2000 (Invitrogen) mediated transfection was used as described by the manufacturer. Membranes were prepared using Buffers A and B and as described previously, [29]. The protein concentration in the resuspended membrane pellet was determined using a modified DC protein assay kit from Bio-Rad Laboratories (Hercules, CA).
# (§2) These were carried out in Buffer C for 60 min at room temperature, using 2 to 20 µg of membrane protein and different concentrations of [^3H] […] Binding of [^3H] […] Competition binding assays were performed using 4 nM [^3H] […] Binding was terminated by filtering under vacuum on GF/A filters (Millipore). Filter-bound radioactivity was measured using a liquid scintillation counter. Equilibrium dissociation constants (Kd) were determined from saturation isotherms using PRISM software version 5.0 (GraphPad Software Inc, San Diego, CA, USA). The Ki values were calculated from the IC50, using the equation of Cheng and Prusoff by PRISM software version 5.0. Where applicable, statistical significance of the data was evaluated using analysis of variance (ANOVA) and/or unpaired t test.
# [1] = molecular target: T2, TP A160T mutant (nsSNP variant) (Homo sapiens, UniProt P21731, A160T); assay: as above; details: read-out: Ki of agonist U46619, 4 nM [3H] SQ 29,548, 2 hr room temperature, Cheng-Prusoff from IC50
# T2 construct: expressed in transfected cells; HEK293T (calcium assays)
# T2 sequence (P21731 1-343 A160T): T1 sequence (P21731 1-343 A160S) with S160T
# Protocol: as §1, §2
# TP A160V mutant = molecular target: T3, TP A160V mutant (Homo sapiens, UniProt P21731, A160V); assay: as above; details: read-out: Ki of agonist U46619, 4 nM [3H] SQ 29,548, 2 hr room temperature, Cheng-Prusoff from IC50
# T3 construct: expressed in transfected cells; HEK293T (calcium assays)
# T3 sequence (P21731 1-343 A160V): T1 sequence (P21731 1-343 A160S) with S160V
# Protocol: as §1, §2
# TP V110A mutant = molecular target: T4, TP V110A mutant (Homo sapiens, UniProt P21731, V110A); assay: Intracellular calcium mobilization (Fluo-4NW) in transfected HEK293T cells; type: cell-based; details: read-out: EC50 of agonist U46619 (calcium mobilized), transiently transfected HEK293T cells, mean ± S.E
# T4 construct: expressed in transfected cells; HEK293T (calcium assays)
# T4 sequence (P21731 1-343 V110A): T1 sequence (P21731 1-343 A160S) with V110A, S160A
# Protocol: as §1
# Changes in intracellular calcium were measured by using the fluorescent calcium sensitive dye Fluo-4NW (Invitrogen). After 6–8 hours of transient transfection of HEK293T cells using lipofectamine 2000, 100,000 viable cells were plated into each well of a 96-well tissue culture treated BD-falcon optilux plates. Cells mock transfected with vector pMT4 alone were used as a negative control. Following 24 hours of incubation at 37°C, the media was removed and cells were incubated with the dye Fluo-4NW (Invitrogen) containing 77 µg/ml of probenecid for 1 hour, as recommended by the manufacturer. […] Dose–response curves were generated and EC50 values calculated by nonlinear regression analysis using PRISM software version 5.0 (GraphPad Software Inc, San Diego, CA) after subtracting the responses of mock-transfected cells stimulated with same concentrations of agonists.
smiles,measurement,setting,value
CCCCC[C@H](O)/C=C/[C@@H]1[C@@H](C/C=C\CCCC(=O)O)[C@H]2CO[C@@H]1C2 [U46619],Ki,TP A160S mutant,1520 nM
same,Ki,[1],720 nM
same,Ki,TP A160V mutant,1510 nM
same,EC50,TP V110A mutant,2.7 ± 0.2 nM
